Measurements taken from patent publication US20070244173A1, “6,7-Dihydroxy-8-Phenyl-3,6,7,8-Tetrahydro-Chromeno [7,8-d] Imidazole Derivatives and Their Use as Gastric Acid Secretion Inhibitors” (Altana Pharma AG, priority 2004, published 2007).

Legend:
[1] = test system: pentagastrin-stimulated acid secretion of the perfused rat stomach; test: Secretion-inhibiting action on the perfused rat stomach (pentagastrin-stimulated acid secretion, intraduodenal administration in vivo); conditions: iv, dose 2 μmol/kg i.d., anesthetized female CD rat, pentagastrin 1 μg/kg i.v. infusion
From the text: Testing of the Secretion-Inhibiting Action on the Perfused Rat Stomach
In Table A which follows, the influence of the compounds of the formula 1 according to the invention on the pentagastrin-stimulated acid secretion of the perfused rat stomach after intraduodenal administration in vivo is shown.
The abdomen of anesthetized rats (CD rat, female, 200-250 g; 1.5 g/kg i.m. urethane) was opened after tracheotomy by a median upper abdominal incision and a PVC catheter was fixed transorally in the esophagus and another via the pylorus such that the ends of the tubes just projected into the gastric lumen. The catheter leading from the pylorus led outward into the right abdominal wall through a side opening.
After thorough rinsing (about 50-100 ml), warm (37° C.) physiological NaCl solution was continuously passed through the stomach (0.5 ml/min, pH 6.8-6.9; Braun-Unita I). The pH (pH meter 632, glass electrode EA 147; φ=5 mm, Metrohm) and, by titration with a freshly prepared 0.01N NaOH solution to pH 7 (Dosimat 665 Metrohm), the secreted HCl were determined in the effluent in each case collected at an interval of 15 minutes.
The gastric secretion was stimulated by continuous infusion of […] (=1.65 ml/h) of i.v. pentagastrin (left femoral vein) about 30 min after the end of the operation (i.e. after determination of 2 preliminary fractions). The substances to be tested were administered intraduodenally in a 2.5 ml/kg liquid volume 60 min after the start of the continuous pentagastrin infusion. The body temperature of the animals was kept at a constant 37.8-38° C. by infrared irradiation and heat pads (automatic, stepless control by means of a rectal temperature sensor).

SMILES: CCO[C@@H]1c2ccc3c(nc(C)n3C)c2O[C@H](c2ccccc2)[C@H]1O [Example 4, (6R,7S,8R)-6-Ethoxy-7-hydroxy-2,3-dimethyl-8-phenyl-3,6,7,8-tetrahydro-chromeno[7,8-d]imidazole]
- melting point: 222 °C
- inhibition in vivo at 2 µmol/kg [1]: > 50%

SMILES: COCCO[C@@H]1c2ccc3c(nc(C)n3C)c2O[C@H](c2ccccc2)[C@H]1O [Example 1, (6R,7S,8R)-7-Hydroxy-6-(2-methoxy-ethoxy)-2,3-dimethyl-8-phenyl-3,6,7,8-tetrahydro-chromeno[7,8-d]imidazole]
- inhibition in vivo at 2 µmol/kg [1]: > 50%

SMILES: COCCO[C@H]1c2ccc3c(nc(C)n3C)c2O[C@H](c2ccccc2)[C@H]1O [Example 2, (6S,7S,8R)-7-Hydroxy-6-(2-methoxy-ethoxy)-2,3-dimethyl-8-phenyl-3,6,7,8-tetrahydro-chromeno[7,8-d]imidazole]
- melting point: 163 °C
- inhibition in vivo at 2 µmol/kg [1]: < 50%

SMILES: Cc1nc2c3c(ccc2[nH]1)[C@@H](O)[C@H](O)[C@@H](c1ccccc1)O3 [Example 10, (6R,7S,8R)-6,7-Dihydroxy-2-methyl-8-phenyl-3,6,7,8-tetrahydro-chromeno[7,8-d]imidazole]
- melting point: 163 °C

SMILES: C=CCn1c(C)nc2c3c(ccc21)[C@@H](OCCOC)[C@H](O)[C@@H](c1ccccc1)O3 [Example 11, (6R,7S,8R)-3Allyl-7-hydroxy-6-(2-methoxy-ethoxy)-2-methyl-8-phenyl-3,6,7,8-tetrahydro-chromeno[7,8-d]imidazole]
- melting point: 79 °C
- inhibition in vivo at 2 µmol/kg [1]: < 50%

SMILES: CC=Cn1c(C)nc2c3c(ccc21)[C@H]1OCCO[C@@H]1[C@@H](c1ccccc1)O3 [Example 15, (5S,6R,10R)-16-Methyl-6-phenyl-17-propenyl-2,3,5,6,10,17-hexahydro-1,4,7-trioxa-15,17-diaza-cyclopenta[a]phenanthrene]
- melting point: 213 °C
- inhibition in vivo at 2 µmol/kg [1]: > 50%

SMILES: COCCO[C@@H]1c2ccc3c(nc(C4CC4)n3C)c2O[C@H](c2ccccc2)[C@H]1O [Example 21, (6R,7S,8R)-2-Cyclopropyl-7-hydroxy-6-(2-methoxy-ethoxy)-3-methyl-8-phenyl-3,6,7,8-tetrahydro-chromeno[7,8-d]imidazole]
- melting point: 157 °C

SMILES: COCCO[C@@H]1c2ccc3c(nc(C)n3C3CC3)c2O[C@H](c2ccccc2)[C@H]1O [Example 18, (6R,7S,8R)-3-Cyclopropyl-7-hydroxy-6-(2-methoxy-ethoxy)-2-methyl-8-phenyl-3,6,7,8-tetrahydro-chromeno[7,8-d]imidazole]
- melting point: 183 °C
- inhibition in vivo at 2 µmol/kg [1]: < 50%

SMILES: Cc1nc2c3c(ccc2n1C)[C@@H](OCCF)[C@H](O)[C@@H](c1ccccc1)O3 [Example 5, (6R,7S,8R)-6-(2-Fluoro-ethoxy)-7-hydroxy-2,3-dimethyl-8-phenyl-3,6,7,8-tetrahydro-chromeno[7,8-d]imidazole]
- melting point: 226 °C
- inhibition in vivo at 2 µmol/kg [1]: > 50%

SMILES: COCCO[C@@H]1c2ccc3c(nc(C)n3C)c2O[C@H](c2ccccc2)[C@H]1OC(=O)CN(C)C [Example 8, (6R,7S,8R)-7-(2-Dimethylamino-acetoxy)-6-(2-methoxy-ethoxy)-2,3-dimethyl-8-phenyl-3,6,7,8-tetrahydro-chromeno[7,8-d]imidazole]
- melting point: 175 °C
- inhibition in vivo at 2 µmol/kg [1]: > 50%

SMILES: COCCO[C@H]1c2ccc3c(nc(C4CC4)n3C)c2O[C@H](c2ccccc2)[C@H]1O [Example 22, (6S,7S,8R)-2-Cyclopropyl-7-hydroxy-6-(2-methoxy-ethoxy)-3-methyl-8-phenyl-3,6,7,8-tetrahydro-chromeno[7,8-d]imidazole]
- melting point: 133 °C

SMILES: Cc1nc2c3c(ccc2n1C)[C@@H](OCC(F)F)[C@H](O)[C@@H](c1ccccc1)O3 [Example 9, (6R,7S,8R)-7-Hydroxy-6-(2,2-difluoro-ethoxy)-2,3-dimethyl-8-phenyl-3,6,7,8-tetrahydro-chromeno[7,8-d]imidazole]
- melting point: 249 °C
- inhibition in vivo at 2 µmol/kg [1]: > 50%

SMILES: Cc1nc2c3c(ccc2n1C1CC1)[C@@H](O)[C@H](O)[C@@H](c1ccccc1)O3 [Example 17, (6R,7S,8R)-3-Cyclopropyl-6,7-dihydroxy-2-methyl-8-phenyl-3,6,7,8-tetrahydro-chromeno[7,8-d]imidazole]
- inhibition in vivo at 2 µmol/kg [1]: < 50%

SMILES: C=CCn1c(C)nc2c3c(ccc21)[C@@H](OCCF)[C@H](O)[C@@H](c1ccccc1)O3 [Example 14, (6R,7S,8R)-3-Allyl-7-hydroxy-6-(2-fluoro-ethoxy)-2-methyl-8-phenyl-3,6,7,8-tetrahydro-chromeno[7,8-d]imidazole]
- melting point: 117 °C

SMILES: Cc1nc2c3c(ccc2n1C)[C@@H](O)[C@H](O)[C@@H](c1ccccc1)O3 [Example 3, (6R,7S,8R)-6,7-Dihydroxy-2,3-dimethyl-8-phenyl-3,6,7,8-tetrahydro-chromeno[7,8-d]imidazole]
- melting point: 262.5 °C
- inhibition in vivo at 2 µmol/kg [1]: < 50%

SMILES: COCCO[C@@H]1c2ccc3c(nc(C)n3C)c2O[C@H](c2ccccc2)[C@H]1OC(=O)COC [Example 7, (6R,7S,8R)-7-(2-Methoxy-acetoxy)-6-(2-methoxy-ethoxy)-2,3-dimethyl-8-phenyl-3,6,7,8-tetrahydro-chromeno[7,8-d]imidazole]
- melting point: 200 °C
- inhibition in vivo at 2 µmol/kg [1]: > 50%

SMILES: COCCO[C@H]1c2ccc3c(nc(C)n3C3CC3)c2O[C@H](c2ccccc2)[C@H]1O [Example 19, (6S,7S,8R)-3-Cyclopropyl-7-hydroxy-6-(2-methoxy-ethoxy)-2-methyl-8-phenyl-3,6,7,8-tetrahydro-chromeno[7,8-d]imidazole]
- melting point: 218 °C
- inhibition in vivo at 2 µmol/kg [1]: > 50%

SMILES: CC=Cn1c(C)nc2c3c(ccc21)[C@@H](OCCOC)[C@H](O)[C@@H](c1ccccc1)O3 [Example 12, (6R,7S,8R)-7-Hydroxy-6-(2-methoxy-ethoxy)-2-methyl-8-phenyl-3-propenyl-3,6,7,8-tetrahydro-chromeno[7,8-d]imidazole]
- melting point: 61 °C

SMILES: COCCO[C@@H]1c2ccc3[nH]c(C)nc3c2O[C@H](c2ccccc2)[C@H]1O [Example 13, (6R,7S,8R)-7-Hydroxy-6-(2-methoxy-ethoxy)-2-methyl-8-phenyl-3,6,7,8-tetrahydro-chromeno[7,8-d]imidazole]
- melting point: 117 °C

SMILES: Cc1nc2c3c(ccc2[nH]1)[C@H]1OCCO[C@@H]1[C@@H](c1ccccc1)O3 [Example 16, (5S,6R,10R)-16-Methyl-6-phenyl-2,3,5,6,10,17-hexahydro-1,4,7-trioxa-15,17-diaza-cyclopenta[a]phenanthrene]
- melting point: 260 °C
- inhibition in vivo at 2 µmol/kg [1]: > 50%

SMILES: Cc1nc2c3c(ccc2n1C)[C@H]1OCCO[C@@H]1[C@@H](c1ccccc1)O3 [Example 6, (5S,6R,10R)-16,17-Dimethyl-6-phenyl-2,3,5,6,10,17-hexahydro-1,4,7-trioxa-15,17-diaza-cyclopenta[a]phenanthrene]
- melting point: 307 °C
- inhibition in vivo at 2 µmol/kg [1]: > 50%
